According to publication PMC7381729, “A new class of PentixaFor- and PentixaTher-based theranostic agents with enhanced CXCR4-targeting efficiency” (Theranostics, 2020):
Where two headings read alike, the source gives them in different places.

Biological target: T1, human CXCR4 (hCXCR4) (Homo sapiens, UniProt P61073)
T1 construct: hCXCR4-expressing Jurkat human T-cell leukemia cells; endogenous in cells; host or cells: Jurkat human T-cell leukemia cells (whole cells)
Assay: Competition binding to hCXCR4, Jurkat cells, [125I]FC-131 as radioligand
Conditions: Jurkat cells 400.000 cells/sample, means ± SD of min. three separate experiments
Method: Experiments were performed in triplicate with n=3 per concentration in each experiment. IC50 values were calculated using GraphPad Prism 6.01 (Graph Pad Software, San Diego, USA).
Figure 2 Binding affinities (IC50 in nM) of the respective ^natGa-, ^natLu-, ^natY- and ^natBi-complexes of PentixaFor (entry 1), PentixaTher (entry 2) and a series of CPCR4-(blue) and iodoCPCR4-(black) derived analogs with modified linker structure (entries 3-14) to human CXCR4 (hCXCR4). […] Each experiment was performed in triplicate, and results are means ± SD from a minimum of three separate experiments. TEXT PRINTED IN THE PICTURE: 1: ^natGa-complex IC50 [nM]: 24.8 ± 2.5; ^natLu-complex IC50 [nM]: 41 ± 12; ^natY-complex IC50 [nM]: 40 ± 27 | 2: ^natGa-complex IC50 [nM]: 6.1 ± 1.5; ^natLu-complex IC50 [nM]: 14.6 ± 1.0; ^natY-complex IC50 [nM]: 20.4 ± 0.3; ^natBi-complex IC50 [nM]: 24.4 ± 3.7 | 3: ^natGa-complex IC50 [nM]: 282 ± 90; ^natLu-complex IC50 [nM]: 12.5 ± 3.2; ^natY-complex IC50 [nM]: 216 ± 33; ^natBi-complex IC50 [nM]: 27 ± 14 | 4: ^natGa-complex IC50 [nM]: 14.4 ± 0.3; ^natLu-complex IC50 [nM]: 28 ± 9; ^natY-complex IC50 [nM]: 83 ± 30 | 5: ^natLu-complex IC50 [nM]: 106 ± 10 | 6: ^natGa-complex IC50 [nM]: 7.9 ± 1.1; ^natLu-complex IC50 [nM]: 5.9 ± 0.3; ^natY-complex IC50 [nM]: 6.7 ± 1.2; ^natBi-complex IC50 [nM]: 14.5 ± 0.2 | 7: ^natGa-complex IC50 [nM]: 47 ± 8; ^natLu-complex IC50 [nM]: 39 ± 1; ^natY-complex IC50 [nM]: 43 ± 2 | 8: ^natGa-complex IC50 [nM]: 3.6 ± 0.7; ^natLu-complex IC50 [nM]: 3.5 ± 0.3; ^natY-complex IC50 [nM]: 4.1 ± 1.3; ^natBi-complex IC50 [nM]: 3.5 ± 0.4 | 9: ^natGa-complex IC50 [nM]: 8.9 ± 3.8; ^natLu-complex IC50 [nM]: 8.0 ± 3.1; ^natY-complex IC50 [nM]: 6.3 ± 2.5 | 10: ^natGa-complex IC50 [nM]: 2.4 ± 0.1; ^natLu-complex IC50 [nM]: 3.6 ± 1.1; ^natY-complex IC50 [nM]: 2.4 ± 0.2; ^natBi-complex IC50 [nM]: 38 ± 25 | 11: ^natGa-complex IC50 [nM]: 9.7 ± 2.8; ^natLu-complex IC50 [nM]: 5.4 ± 1.6; ^natY-complex IC50 [nM]: 8.7 ± 2.9 | 12: ^natGa-complex IC50 [nM]: 1.4 ± 0.2; ^natLu-complex IC50 [nM]: 2.1 ± 0.3; ^natY-complex IC50 [nM]: 2.1 ± 0.3; ^natBi-complex IC50 [nM]: 2.9 ± 0.1 | 13: ^natGa-complex IC50 [nM]: 0.4 ± 0.1; ^natLu-complex IC50 [nM]: 1.5 ± 0.1; ^natY-complex IC50 [nM]: 1.5 ± 0.1 | 14: ^natGa-complex IC50 [nM]: 2.6 ± 1.0; ^natLu-complex IC50 [nM]: 1.7 ± 0.6; ^natY-complex IC50 [nM]: 1.6 ± 0.5; ^natBi-complex IC50 [nM]: 1.8 ± 0.8

[1] = natGa-complex, read-out: ^natGa-complex IC50 to hCXCR4
[2] = natLu-complex, read-out: ^natLu-complex IC50 to hCXCR4
[3] = natY-complex, read-out: ^natY-complex IC50 to hCXCR4
[4] = natBi-complex, read-out: ^natBi-complex IC50 to hCXCR4

T1 sequence (P61073 whole entry): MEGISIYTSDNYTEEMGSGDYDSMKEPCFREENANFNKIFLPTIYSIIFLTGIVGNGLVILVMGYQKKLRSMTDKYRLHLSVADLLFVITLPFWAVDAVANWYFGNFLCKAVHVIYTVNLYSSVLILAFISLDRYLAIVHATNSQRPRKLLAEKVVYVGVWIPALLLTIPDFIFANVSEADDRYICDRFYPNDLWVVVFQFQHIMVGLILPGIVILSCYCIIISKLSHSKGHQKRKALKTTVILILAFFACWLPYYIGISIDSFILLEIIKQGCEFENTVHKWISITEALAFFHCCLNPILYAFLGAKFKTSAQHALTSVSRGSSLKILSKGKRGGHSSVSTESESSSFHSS

| Substance | IC50 [1] [µM] | IC50 [2] [µM] | IC50 [3] [µM] | IC50 [4] [µM] |
| --- | --- | --- | --- | --- |
| PentixaFor [entry 1, reference compound] | 0.0248 ± 0.0025 | 0.041 ± 0.012 | 0.04 ± 0.027 |  |
| DOTA-k-G-ABA-iodoCPCR4 (head to tail) [entry 10] | 0.0024 ± 0.0001 | 0.0036 ± 0.0011 | 0.0024 ± 0.0002 | 0.038 ± 0.025 |
| DOTAGA-ABA-iodoCPCR4 (head to tail) [entry 4] | 0.0144 ± 0.0003 | 0.028 ± 0.009 | 0.083 ± 0.03 |  |
| DOTA-ABA-iodoCPCR4 (head to tail) [entry 3] | 0.282 ± 0.09 | 0.0125 ± 0.0032 | 0.216 ± 0.033 | 0.027 ± 0.014 |
| DOTA-k-G-ABA-CPCR4 [entry 9] | 0.0089 ± 0.0038 | 0.008 ± 0.0031 | 0.0063 ± 0.0025 |  |
| DOTA-AMBS-iodoCPCR4 (head to tail) [entry 2, PentixaTher] | 0.0061 ± 0.0015 | 0.0146 ± 0.001 | 0.0204 ± 0.0003 | 0.0244 ± 0.0037 |
| DOTAGA-G-ABA-iodoCPCR4 (head to tail) [entry 7] | 0.047 ± 0.008 | 0.039 ± 0.001 | 0.043 ± 0.002 |  |
